The target in one experiment is PfPPase-VP1 (Plasmodium falciparum, UniProt Q8IKR1). Kind of experiment: biochemical. How it is done: The activity of PfPPase-VP1 was determined using a molybdenum blue colorimetric activity assay in 96-well plate format to measure the amount of phosphate production, as previously described for TmPPase but with modifications to pH (5.2–10) and temperature conditions (20–70°C) as described below. To determine the optimal pH for PfPPase-VP1 activity, 5 μL of 2.5 mg/mL total membrane protein was added to the reaction mixture (60 mM of various buffers (below) with pHs ranging from 5.2–10.0, 3 mM MgCl2, 100 mM KCl, and 10 mM NaCl, 100 mM NaF, 5 μM Gramicidin D), to a final volume of 40 μL. Buffers were trisodium-citrate (pH 5.2), MES (pH 6.5), Tris-HCl (pH 6.8, 7.5, 8.0, and 8.8) and glycine-NaOH (pH 10.0). A control sample was prepared by heating the membrane faction at 90 °C for 5 min to inactivate the enzyme. The reaction mixture was incubated at 30 °C for 5 min in a 96-well heating block. After incubation, 10 µl of 2 mM sodium pyrophosphate (PPi) was added, mixed, and incubated for 10 min. The reaction was stopped by adding 60 μL of premixed solution A (0.3 g ascorbic acid in 10 mL of 0.5 M cold HCl) and solution B (70 mg of ammonium heptamolybdate tetrahydrate in 1 mL of cold milli-Q water) and incubating on ice for 1 h. Finally, 90 μL sodium arsenite solution (5 g sodium arsenite, 5 g trisodium citrate dihydrate and 5 mL of iced-acetic acid in 250 mL milli-Q water) was added and incubated at RT for 30 min. Absorbance was measured at 860 nm on a MultiSkan Go UV/Vis spectrophotometer (Thermo Scientific). The specific activity of PfPPase-VP1 in the membrane was calculated using our previously published formula [23]. 60 mM Tris-Cl (pH 7.5) buffer was then selected for optimization of the reaction temperature (RT, 30 °C, 40 °C, 50 °C, 60 °C and 70 °C) by repeating the assay as described above. […] For the activity assay of purified PfPPase-VP1, 0.15 μg of the enzyme in the optimized detergent solution was mixed with 0.8 μL of 20 mg/mL liposomes (soybean lecithin) and then reaction buffer (60 mM Tris-HCl (pH 7.5), 3 mM MgCl2, 100 mM KCl, and 10 mM NaCl) was added to a total volume of 40 μL. The reaction mixture was preheated at 50 °C for 5 min before adding 10 µl of 2mM PPi and mixing. The catalytic reaction was run for 45 min at 50 °C, and the phosphate production was determined as described above. IDP, a known mPPase competitive inhibitor [35], was used as a positive control to validate the assay for inhibitor screening.
Sequence of PfPPase-VP1 (Q8IKR1 entry or part of it): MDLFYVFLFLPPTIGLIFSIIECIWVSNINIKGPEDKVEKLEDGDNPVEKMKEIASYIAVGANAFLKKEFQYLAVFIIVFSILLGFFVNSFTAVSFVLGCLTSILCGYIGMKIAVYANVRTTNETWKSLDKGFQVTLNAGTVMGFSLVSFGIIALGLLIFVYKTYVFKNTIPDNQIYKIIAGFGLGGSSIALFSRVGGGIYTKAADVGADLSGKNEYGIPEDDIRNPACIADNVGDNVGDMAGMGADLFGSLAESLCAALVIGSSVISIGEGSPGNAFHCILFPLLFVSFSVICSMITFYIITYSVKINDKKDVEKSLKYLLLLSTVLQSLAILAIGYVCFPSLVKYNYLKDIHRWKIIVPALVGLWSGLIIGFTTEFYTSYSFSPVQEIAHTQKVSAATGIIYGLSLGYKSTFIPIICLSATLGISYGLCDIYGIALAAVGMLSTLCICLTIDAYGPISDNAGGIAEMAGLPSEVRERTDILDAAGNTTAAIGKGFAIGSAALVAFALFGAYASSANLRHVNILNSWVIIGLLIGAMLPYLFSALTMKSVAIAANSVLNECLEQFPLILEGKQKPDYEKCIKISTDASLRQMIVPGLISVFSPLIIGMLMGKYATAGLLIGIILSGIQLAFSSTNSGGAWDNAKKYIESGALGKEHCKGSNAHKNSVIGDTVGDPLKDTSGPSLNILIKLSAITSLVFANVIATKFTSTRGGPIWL
The 35 compounds used in this study were pre-dissolved in dimethyl sulfoxide (DMSO) at concentrations of 25–50 mM.
IDP was used in parallel as a positive control. Each concentration of the test compounds was tested in triplicate.

Experiment [1] addresses T1, TmPPase (Thermotoga maritima, UniProt Q9S5X0).
T1 sequence (Q9S5X0 1-726): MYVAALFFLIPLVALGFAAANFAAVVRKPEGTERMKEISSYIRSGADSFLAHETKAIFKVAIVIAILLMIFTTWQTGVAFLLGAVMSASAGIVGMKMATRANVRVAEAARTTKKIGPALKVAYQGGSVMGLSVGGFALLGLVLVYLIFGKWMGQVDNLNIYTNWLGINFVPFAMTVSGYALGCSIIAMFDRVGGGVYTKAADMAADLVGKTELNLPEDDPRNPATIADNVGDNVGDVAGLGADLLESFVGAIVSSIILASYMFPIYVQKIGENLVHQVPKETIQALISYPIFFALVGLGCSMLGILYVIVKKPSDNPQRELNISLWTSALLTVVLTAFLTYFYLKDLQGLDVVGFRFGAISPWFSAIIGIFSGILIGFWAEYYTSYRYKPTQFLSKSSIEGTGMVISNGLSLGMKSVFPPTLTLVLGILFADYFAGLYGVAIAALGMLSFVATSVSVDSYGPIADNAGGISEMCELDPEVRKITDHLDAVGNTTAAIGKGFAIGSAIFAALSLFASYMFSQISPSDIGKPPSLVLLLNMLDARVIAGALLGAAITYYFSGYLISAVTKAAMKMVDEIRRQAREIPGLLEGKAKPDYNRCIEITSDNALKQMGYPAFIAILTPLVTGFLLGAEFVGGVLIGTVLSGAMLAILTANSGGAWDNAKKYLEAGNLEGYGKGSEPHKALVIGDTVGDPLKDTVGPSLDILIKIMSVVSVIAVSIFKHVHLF
Kind of experiment: TmPPase inhibition assay (96-well molybdenum blue colorimetric phosphate assay). The format is biochemical. Set-up: made in house.

For experiment [2], the target named is T1, TmPPase. Set-up: made in house; host or cells: S. cerevisiae. To be noted: cited from earlier work.
[3] abbreviates: purified PfPPase-VP1 reconstituted in liposomes, Tris-HCl pH 7.5, 50 °C, 45 min, triplicate, interval given.
The mark [4] stands for this setting: interval given, read-out: IC50 (TmPPase).

The source of these data is publication PMC12111632, “Expression, purification and preliminary pharmacological characterization of the Plasmodium falciparum membrane-bound pyrophosphatase type 1” (PLOS One, 2025).

Each structure is given as a SMILES string. Where a name gives a salt, the structure may show the parent alone. Read-outs that look alike come from different tables or passages of the source. Where only a bound is given, the exact number is not on record here.

As for `CCN(CC)CCCC(C)Nc1ccnc2cc(Cl)ccc12` (stereo not drawn) [Compound 12, Chloroquine diphospate salt], at PfPPase-VP1 (setting [3]), the “IC50 (PfPPase, μM)” value is listed as “Inactive”. Also, the “IC50 (TmPPase, μM)” value against TmPPase [1] is on record as “Inactive”.
`N=C(N)c1ccc(-c2ccc(-c3ccc(C(=N)N)cc3)o2)cc1` [Compound 2, Furamidine dihydrochloride] came in with a concentration for half-maximal inhibition (IC50) on PfPPase-VP1 of 190 µM. For the same compound, at TmPPase [1], the “IC50 (TmPPase, μM)” value is reported as “Inactive”.
On to `CC1(C)N=C(N)N=C(N)N1c1ccc(Cl)cc1` [Compound 4, Cycloguanil hydrochloride], for which the “IC50 (PfPPase, μM)” value against PfPPase-VP1 (setting [3]) is given as “Inactive”. Further, at TmPPase [1], the “IC50 (TmPPase, μM)” value is recorded as “Inactive”.
With `CC(C)(C)c1cc(-c2cc(C(=O)Oc3ccccc3Br)no2)cc(C(C)(C)C)c1` [Compound 18], on TmPPase [2] (setting [4]), the IC50 was 10 µM. For the same compound, at PfPPase-VP1 (setting [3]), the “IC50 (PfPPase, μM)” value is given as “Inactive”.
As to `C=Cc1cc2nc(C(=O)O)cc(-c3cc(C)cc(C)c3)n2n1` [Compound 19], at TmPPase [2] (read-out: IC50 against TmPPase), the IC50 is less than 20 µM.
Turning to `COc1cc(C2c3c(-c4cc(Cl)c(C)cc4O)n[nH]c3C(=O)N2Cc2ccccc2)ccc1O` (stereo not drawn) [Compound 16], the IC50 at TmPPase [2] (setting [4]) is 33 µM. The “IC50 (PfPPase, μM)” value against PfPPase-VP1 (setting [3]) is “Inactive”.
In the case of `C[C@@H]1CC[C@H]2[C@@H](C)C(=O)O[C@@H]3O[C@@]4(C)CC[C@@H]1[C@]32OO4` [Compound 1, Artemisinin], on PfPPase-VP1 (setting [3]), the “IC50 (PfPPase, μM)” value was “Inactive”. Besides, at TmPPase [1], the “IC50 (TmPPase, μM)” value is “Inactive”.
For `C[C@H]1c2cccc(O)c2C(=O)C2=C(O)[C@]3(O)C(=O)C(C(N)=O)=C(O)[C@@H](N(C)C)[C@@H]3[C@@H](O)[C@@H]21` [Compound 7, Doxycyline monohydrate], the “IC50 (PfPPase, μM)” value against PfPPase-VP1 (setting [3]) is “Inactive”. At TmPPase [1], the “IC50 (TmPPase, μM)” value is on record as “Inactive”.
`CCOC(=O)c1cc(-c2ccc(OC)c(S(=O)(=O)N3CCCSc4ccccc43)c2)on1` [Compound 15]: the “IC50 (PfPPase, μM)” value against PfPPase-VP1 (setting [3]) is “Inactive”.
In the case of `O=C1C(O)=C([C@H]2CC[C@H](c3ccc(Cl)cc3)CC2)C(=O)c2ccccc21` [Compound 8, Atovaquone], the “IC50 (PfPPase, μM)” value at PfPPase-VP1 (setting [3]) is on record as “Inactive”. Further, at TmPPase [1], the “IC50 (TmPPase, μM)” value is on record as “Inactive”.
Turning to `O=P(O)(O)NP(=O)(O)O` [IDP, imidodiphosphate], the half-inhibitory concentration (IC50) on PfPPase-VP1 (purified PfPPase-VP1 reconstituted in liposomes, Tris-HCl pH 7.5, 50 °C, 45 min, triplicate, interval given, read-out: IC50 (PfPPase)) came to 175 µM.
As for `[H]/N=C(\N/C(=N/[H])Nc1ccc(Cl)cc1)NC(C)C` [Compound 6, Proguanil hydrochloride], the “IC50 (PfPPase, μM)” value at PfPPase-VP1 (setting [3]) is “Inactive”. The “IC50 (TmPPase, μM)” value against TmPPase [1] is “Inactive”.
For `CCN(CCO)CCCC(C)Nc1ccnc2cc(Cl)ccc12` (stereo not drawn) [Compound 14, Hydroxychloroquine], at PfPPase-VP1 (setting [3]), the “IC50 (PfPPase, μM)” value is reported as “Inactive”. The “IC50 (TmPPase, μM)” value against TmPPase [1] is listed as “Inactive”.
On to `CC(=O)N(O)CCCP(=O)(O)O` [Compound 10, FR900098 (sodium salt)], for which the “IC50 (PfPPase, μM)” value at PfPPase-VP1 (setting [3]) is on record as “Inactive”. Also, on TmPPase [1], the “IC50 (TmPPase, μM)” value is “Inactive”.
For `CCN(CC)CCCC(C)Nc1ccnc2cc(Cl)ccc12` (stereo not drawn) [Compound 11, Chloroquine], the “IC50 (PfPPase, μM)” value against PfPPase-VP1 (setting [3]) was “Inactive”. Also, on TmPPase [1], the “IC50 (TmPPase, μM)” value was “Inactive”.
On to `N=C(N)c1ccc(OCCCCCOc2ccc(C(=N)N)cc2)cc1` [Compound 3, Pentamidine isethionate], for which the “IC50 (TmPPase, μM)” value on TmPPase [1] is “Inactive”.
`C=Cc1cc2nc(C(=O)Oc3ccccc3Br)cc(-c3cc(C)cc(C)c3)n2n1` [Compound 20]: the 50% inhibitory concentration (IC50) on TmPPase [2] (read-out: IC50 against TmPPase) is less than 20 µM.
On to `O=CN(O)CCCP(=O)(O)O` [Compound 9, Fosmidomycin], for which the “IC50 (PfPPase, μM)” value on PfPPase-VP1 (setting [3]) is given as “Inactive”. The “IC50 (TmPPase, μM)” value against TmPPase [1] was “Inactive”.
As for `Cc1cc(C)cc(-c2cc(C(=O)Oc3ccccc3Br)no2)c1` [Compound 17], the IC50 on TmPPase [2] (setting [4]) was 6.7 µM. For the same compound, the “IC50 (PfPPase, μM)” value on PfPPase-VP1 (setting [3]) is “Inactive”.
In the case of `OC(c1cc(C(F)(F)F)nc2c(C(F)(F)F)cccc12)C1CCCCN1` (stereo not drawn) [Compound 5, Mefloquine hydrochloride], the “IC50 (TmPPase, μM)” value on TmPPase [1] is reported as “Inactive”.
Take `CCN(CCO)CCCC(C)Nc1ccnc2cc(Cl)ccc12` (stereo not drawn) [Compound 13, Hydroxychloroquine sulfate]: the “IC50 (PfPPase, μM)” value against PfPPase-VP1 (setting [3]) is given as “Inactive”. For the same compound, on TmPPase [1], the “IC50 (TmPPase, μM)” value is recorded as “Inactive”.

The term IC50 denotes the point on the concentration scale where inhibition reaches its midpoint.
